We go through two compounds from patent publication US8282910B2, “Composition for skin or hair” (Shiseido Company Ltd., priority 2007, dated 2012).

The nature of data set [1]: Solubility of poorly-soluble UV absorbers in oils: triazine derivative (Test Example 3). The settings on record: 2,4-bis{[4-(2-ethylhexyloxy)-2-hydroxy]phenyl}-6-(4-methoxyphenyl) 1,3,5-triazine dissolved in the oil; supernatant after crystal nuclei, 0° C. In kind it is physicochemical. How it is done: (§1) Each of triazine derivative and dibenzoylmethane derivative was warmed and dissolved into each oil shown in Table 2, and then each mixture was cooled to room temperature. After adding crystal nuclei, they were cooled at 0° C. A saturation solubility of each supernatant fluid was measured.
2,4-bis{[4-(2-ethylhexyloxy)-2-hydroxy]phenyl}-6-(4-methoxyphenyl) 1,3,5-triazine was used as triazine derivative.

The nature of data set [2]: Solubility of poorly-soluble UV absorbers in oils: dibenzoylmethane derivative (Test Example 3). Format: physicochemical. The conditions noted are these: 4-tert-butyl-4′-methoxydibenzoylmethane dissolved in the oil; supernatant after crystal nuclei, 0° C. How it is done: as §1
4-tert-butyl-4′-methoxydibenzoylmethane was used as a dibenzoylmethane derivative (i.e. component (a)).

The conditions of data set [3]: background statement; cited from earlier work.

As to `CCCCCCCC(=O)OCC(COC(=O)CCCCCCC)(COC(=O)CCCCCCC)COC(=O)CCCCCCC` [Pentaerithrityl tetraoctanoate], in data set [1], the “Saturation solubility of triazine derivative” value is recorded as 4%. In addition, the “Saturation solubility of dibenzoylmethane derivative” value in data set [2] stood at 6%.

For `COc1ccc(C(=O)CC(=O)c2ccc(C(C)(C)C)cc2)cc1` [4-tert-butyl-4′-methoxydibenzoylmethane], the absorption maximum result in data set [3] was “around 360 nm”.
